Legend:
sarcoidosis = assay: Treatment of a patient diagnosed with sarcoidosis; format: in vivo
Method: A patient is diagnosed with sarcoidosis, and 1,3-propane disulfonic acid is administered to the patient.

[1] = system: SAA-induced production of IL-10 by THP-1 cells; assay: SAA-stimulated inflammation in THP-1 cells: IL-10 production; format: cell-based; conditions: THP-1 cells treated with PMA and SAA
Source text: (§1) FIG. 1 summarizes the protocol employed to evaluate the effect of 1,3-propanedisulfonic acid (or a pharmaceutically acceptable salt thereof) on SAA (serum amyloid A) stimulated inflammation in THP-1 cells.
(§2) THP-1 cells were subjected to PMA (phorbol 12-myristate 13-acetate (EMD Cat. #524400)), SAA (serum amyloid A (PeroTech Cat. #300-13)), and 1,3-propanedisulfonic acid (KIACTA C933 (NRA610-01-CF)). The SAA treated cells were used as a positive control, with the SAA increasing the inflammatory mediators, TNF, IL-18 and IL-10. 1,3-propanedisulfonic acid is added to the cell cultures and the effect on TNF, IL-18 and IL-10 levels is measured.

[2] = system: SAA-induced production of IL-TNF by THP-1 cells; assay: SAA-stimulated inflammation in THP-1 cells: TNF production; format: cell-based; conditions: THP-1 cells treated with PMA and SAA
Source text: as §1, §2

[3] = system: SAA-induced production of IL-18 by THP-1 cells; assay: SAA-stimulated inflammation in THP-1 cells: IL-18 production; format: cell-based; conditions: THP-1 cells treated with PMA and SAA
Source text: as §1, §2

Which “effect on sarcoidosis symptoms” value (sarcoidosis) does the source give for `O=S(=O)(O)CCCS(=O)(=O)O` [1,3-propanedisulfonic acid] here?
The value was “reduction and/or alleviation of sarcoidosis symptoms”.

And the “concentration that inhibits SAA-induced production of IL-10” value [1]?
Its value is no less than 2.5 mg/mL.

And the “concentration that inhibits SAA-induced production of IL-TNF” value [2]?
Its value is no less than 1.25 mg/mL.

What about the “concentration that inhibits SAA-induced production of IL-18” value [3] of the same molecule?
The value was no less than 5 mg/mL.
